Assay results from paper PMC4065394 (The FEBS journal, 2014).
“And” between values parts separate entries of the source, which are not always exact repeats. Identical values can stand only once. “Also recorded” adds a separate entry of the source. Like-named read-outs stand apart in the source and are kept apart here.

Key:
[1] = biological target: T1, R478A DXP synthase (Escherichia coli, UniProt P77488, R478A); format: biochemical, E. coli; conditions: for Km: R478A, coupled assay, 37 °C
[2] = biological target: T2, Y392F DXP synthase (Escherichia coli, UniProt P77488, Y392F); format: biochemical, E. coli; conditions: for Km: Y392F, coupled assay, 37 °C
[3] = biological target: T1, R478A DXP synthase; format: biochemical, E. coli
[4] = biological target: T3, R420A DXP synthase (Escherichia coli, UniProt P77488, R420A); assay: Steady-state DXP formation monitored by CD at 290 nm; format: biochemical, E. coli; conditions: 37 °C, D-GAP 0.25 – 2 mM, 1 mM pyruvate
[5] = biological target: T2, Y392F DXP synthase; format: biochemical, E. coli; conditions: CD at 290 nm, 37 °C
[6] = biological target: T4, wild type DXP synthase (Escherichia coli, UniProt P77488); assay: Substrate binding by intrinsic total protein fluorescence; design: species or system E. coli
[7] = biological target: T1, R478A DXP synthase; format: binding, E. coli; conditions: D-GAP up to 15 mM
[8] = biological target: T3, R420A DXP synthase; assay: Substrate binding by intrinsic total protein fluorescence; design: species or system E. coli; conditions: D-GAP up to 15 mM
[9] = biological target: T4, wild type DXP synthase; conditions: cited from earlier work
[10] = biological target: T4, wild type DXP synthase; conditions: 30 mM D-glyceraldehyde, 8 °C
[11] = biological target: T4, wild type DXP synthase; assay: DX product formation from pyruvate and D-glyceraldehyde; format: biochemical, E. coli; conditions: 30 mM D-glyceraldehyde and 5 mM pyruvate, 8 °C
[12] = biological target: T1, R478A DXP synthase; format: biochemical, E. coli; conditions: 6 °C, from pyruvate and D-GAP
[13] = biological target: T2, Y392F DXP synthase; format: biochemical, E. coli; conditions: 6 °C, from pyruvate and D-GAP
[14] = biological target: T4, wild type DXP synthase; conditions: 6 °C; cited from earlier work
[15] = biological target: T1, R478A DXP synthase; conditions: − D-GAP, 6 °C, single turnover
[16] = biological target: T3, R420A DXP synthase; conditions: − D-GAP, 6 °C, single turnover
[17] = biological target: T2, Y392F DXP synthase; conditions: − D-GAP, 6 °C, single turnover
[18] = biological target: T1, R478A DXP synthase; conditions: + D-GAP (2 mM in second syringe), 6 °C
[19] = biological target: T3, R420A DXP synthase; conditions: + D-GAP (2 mM in second syringe), 6 °C
[20] = biological target: T2, Y392F DXP synthase; conditions: + D-GAP (200 μM in second syringe), 6 °C
[21] = biological target: T4, wild type DXP synthase; conditions: − D-GAP, 6 °C; cited from earlier work
[22] = biological target: T4, wild type DXP synthase; conditions: 6 °C, cited from earlier work
[23] = biological target: T2, Y392F DXP synthase; assay: Substrate binding by intrinsic total protein fluorescence; design: species or system E. coli
[24] = biological target: T1, R478A DXP synthase; assay: biochemical; format: binding, E. coli
[25] = biological target: T3, R420A DXP synthase; assay: biochemical; format: binding, E. coli
[26] = biological target: T2, Y392F DXP synthase; assay: CD titration with pyruvate; format: binding, E. coli
[27] = biological target: T4, wild type DXP synthase; conditions: read-out: Kd^pyruvate (apparent), CD spectroscopy; cited from earlier work

O=C[C@H](O)COP(=O)(O)O [D-GAP, D-glyceraldehyde 3-phosphate]
increase in Km^D-GAP compared to wild type DXP synthase ([1]; R478A vs wild type): 70 fold | Km ([1]; read-out: Km^D-GAP): 1600 ± 300 µM | decrease in kcat/Km^D-GAP compared to wild type ([2]; Y392F vs wild type): near eight-fold decrease | Km ([2]; read-out: Km^D-GAP): 210 ± 20 µM | Hill coefficient nH for D-GAP ([3]; CD at 290 nm, 37 °C): 1.1 ± 0.1 | Km ([3]; read-out: Km^D-GAP, CD at 290 nm, 37 °C, D-GAP 0.15 – 2 mM, 1 mM pyruvate): 530 ± 100 µM | saturation by D-GAP [4]: saturation by D-GAP is not achieved; also recorded: Saturation was not achieved | Hill coefficient nH for D-GAP [5]: 1.2 ± 0.1 | Kd [6]: 2000 ± 500 µM | fluorescence quenching upon titration of D-GAP [7]: quenching of fluorescence was not observed; also recorded: negligible changes in fluorescence | fluorescence quenching upon titration of D-GAP [8]: negligible changes in fluorescence; also recorded: quenching of fluorescence was not observed | Km ([9]; read-out: Km^D-GAP): 23.5 ± 1.7 µM

O=C[C@H](O)CO [D-glyceraldehyde]
rate of LThDP decarboxylation promoted with D-glyceraldehyde, k2 [10]: 21.5 ± 0.2 s⁻¹ and 21 s⁻¹

CC(=O)[C@@H](O)[C@H](O)CO [DX, 1-deoxy-D-xylulose]
overall rate of DX product formation, k4 [11]: 1.15 ± 0.7 s⁻¹ | overall rate of DX product formation, k4′ [11]: 0.5 ± 0.2 s⁻¹

CC(=O)[C@@H](O)[C@H](O)COP(=O)(O)O [DXP, 1-deoxy-D-xylulose 5-phosphate]
Formation of DXP, k4 (faster phase) [12]: 0.78 ± 0.08 s⁻¹ | Formation of DXP, k4′ (slower phase) [12]: 0.26 ± 0.02 s⁻¹ | Formation of DXP, k4 (faster phase) [13]: 1.34 ± 0.12 s⁻¹ | Formation of DXP, k4′ (slower phase) [13]: 0.34 ± 0.01 s⁻¹ | Formation of DXP, k4′ (slower phase) [14]: 0.29 ± 0.01 s⁻¹

Cc1ncc(C[n+]2c(C(C)(O)C(=O)O)sc(CCOP(=O)(O)OP(=O)(O)O)c2C)c(N)n1 (stereo not drawn) [LThDP, C2α-lactylthiamin diphosphate]
Formation of LThDP, k1 (faster phase) [15]: 0.85 ± 0.03 s⁻¹ | Formation of LThDP, k1′ (slower phase) [15]: 0.29 ± 0.02 s⁻¹ | Formation of LThDP, k1 (faster phase) [16]: 1.24 ± 0.01 s⁻¹ | Formation of LThDP, k1′ (slower phase) [16]: 0.28 ± 0.002 s⁻¹ | Formation of LThDP, k1 (faster phase) [17]: 1.06 ± 0.03 s⁻¹ | Formation of LThDP, k1′ (slower phase) [17]: 0.3 ± 0.01 s⁻¹ | D-GAP-promoted LThDP Decarboxylation, k2 [18]: k2 = 36.5 ± 1.1 s^−1 | Formation of LThDP (re-synthesis), k1 [18]: k1 = 0.84 ± 0.004 s^−1 | Formation of LThDP (re-synthesis), k1 [19]: k1 = 0.67 ± 0.003 s^−1 | Formation of LThDP (re-synthesis), k1 [20]: k1 = 0.82 ± 0.01 s^−1 | Formation of LThDP, k1 (faster phase) [21]: 1.39 ± 0.05 s⁻¹ | Formation of LThDP, k1′ (slower phase) [21]: 0.16 ± 0.02 s⁻¹ | LThDP Decarboxylation, k2 [21]: k2 = 0.07 ± 0.006 s^−1 | D-GAP-promoted LThDP Decarboxylation, k2 [22]: k2 = 42.0 ± 1.0 s^−1 | Formation of LThDP (re-synthesis), k1 ([22]; + D-GAP): k1 = 0.68 ± 0.01 s^−1

CC(=O)C(=O)O [pyruvate]
Km ([1]; read-out: Km^pyruvate): 54 ± 7 µM | increase in Km^pyruvate compared to wild type ([2]; Y392F vs wild type): 1.5 fold | Km ([2]; read-out: Km^pyruvate): 73 ± 4 µM | Kd [6]: 230 ± 70 µM | Kd [23]: 230 ± 60 µM | Kd [24]: 80 ± 30 µM | Hill coefficient nH for pyruvate ([24]; R478A, CD, 5 °C): 1.0 ± 0.2 | Kd [25]: 37 ± 8 µM | Hill coefficient nH for pyruvate ([25]; R420A, CD, 5 °C): 1.2 ± 0.3 | Kd [26]: 113 µM | Km ([9]; read-out: Km^pyruvate, wild type): 49 ± 8 µM | Kd [27]: 89.4 µM
